According to publication PMC8583417, “Evaluation of the Antimicrobial Efficacy of N-Acetyl-L-Cysteine, Rhamnolipids, and Usnic Acid—Novel Approaches to Fight Food-Borne Pathogens” (International Journal of Molecular Sciences, 2021):

Experiments:
[1] = system: S. Enteritidis ATCC 13076; experiment: MIC for biofilm formation (crystal violet staining); format: cell-based, Salmonella enterica Enteritidis; details: for MICBF80: ≥80% prevention, 24 h
Experimental: (§1) Ten concentrations of NAC, RLs, and UA were tested to determine the minimum inhibitory concentration for planktonic growth, and subsequently, the six highest concentrations were applied on preformed biofilms to evaluate the biofilm eradication ability of the compounds. MIC was defined as the lowest substance concentration able to inhibit at least 80% of microbial growth (MICPC80 for planktonic cells, MICBC80 for further growth of biofilm cells), inhibit 80% of metabolic activity (MICBM80 for biofilm metabolic activity, MICMPB80 for metabolic activity of preformed biofilm), prevent biofilm formation by at least 80% (MICBF80 for biofilm formation), or reduce a preformed biofilm by at least 80% (MICBR80 for biofilm reduction). The results of MICs are summarized in Table 1 (planktonic cells) and Table 2 (biofilm-associated cells).
The determination of MICs was performed according to Chlumsky et al.. […] To evaluate planktonic cells growth (MICPC80) and further growth of biofilm cells (MICBC80), the optical density of the content of the microtiter plates was measured spectrophotometrically at 625 nm before and after 24 h (for biofilm formation) of cultivation or before and after additional 20 h incubation with the tested compound (for preformed biofilm). […] To evaluate the inhibition of biofilm formation (MICBF80) and reduction in preformed biofilms (MICBR80), biomass was quantified using crystal violet staining, and its metabolic activity (MICBM80 and MICMPB80) was estimated by using the MTT (thiazyl tetrazolium bromide, Sigma-Aldrich, USA) reduction assay, both measured spectrophotometrically at 595 nm.
All inhibitions were calculated using the formula of Chlumsky et al. below (Equation (1)):(1) A625(595)nm inhibition (%)=A625(595)nm (control) – A625(595)nm(natural substance)/A625(595)nm (control)× 100 where A625(595)nm (control) is the absorbance of bacterial suspension/biofilm itself, and A625(595)nm(natural substance) is the absorbance of the bacterial suspension/biofilm with the added natural substance (NAC, RLs, and UA). […]

E. coli 683/17 = experiment: as above; format: cell-based, Escherichia coli; details: for MICBF80: ≥80% prevention, 24 h
Experimental: as §1
(§2) The determination of MICs was performed according to Chlumsky et al.. Briefly, 96-well flat-bottomed microtiter plates were inoculated with 75 µL (for biofilm formation) or 100 µL (for preformed biofilm) of bacterial suspension (A625nm 0.08 to 0.1) in technical triplicates and were then carefully mixed with the dilution series of the test substances (24 h cultivation at 25 °C for S. Infantis, 37 °C for other strains) or were directly cultivated to preform biofilms (18 h). For a positive control of bacterial growth, the inoculum was mixed with a pure sterile medium. Furthermore, the sterile medium was included in the plate as a marker of potential microbial contamination. To evaluate planktonic cells growth (MICPC80) and further growth of biofilm cells (MICBC80), the optical density of the content of the microtiter plates was measured spectrophotometrically at 625 nm before and after 24 h (for biofilm formation) of cultivation or before and after additional 20 h incubation with the tested compound (for preformed biofilm). The difference of A625nm was considered as a measure of the ability of cells to grow in the presence of the tested substances. To evaluate the inhibition of biofilm formation (MICBF80) and reduction in preformed biofilms (MICBR80), biomass was quantified using crystal violet staining, and its metabolic activity (MICBM80 and MICMPB80) was estimated by using the MTT (thiazyl tetrazolium bromide, Sigma-Aldrich, USA) reduction assay, both measured spectrophotometrically at 595 nm.
(§3) All inhibitions were calculated using the formula of Chlumsky et al. below (Equation (1)):(1) A625(595)nm inhibition (%)=A625(595)nm (control) – A625(595)nm(natural substance)/A625(595)nm (control)× 100 where A625(595)nm (control) is the absorbance of bacterial suspension/biofilm itself, and A625(595)nm(natural substance) is the absorbance of the bacterial suspension/biofilm with the added natural substance (NAC, RLs, and UA).
(§4) When the minimum inhibitory concentration could not be determined, the MIC was established as >the highest tested concentration for NAC, RLs, and UA.

S. aureus 816 [2] = experiment: as above; format: cell-based, Staphylococcus aureus; details: ≥80% prevention, 24 h
Experimental: as §1
as §2, with “Furthermore, the sterile medium was included in the plate as a marker of potential microbial contamination.” left out, “The difference of A625nm was considered as a measure of the ability of cells to grow in the presence of the tested substances.” left out
as §3, §4

S. aureus 1241 [3] = experiment: as above; format: cell-based, Staphylococcus aureus; details: ≥80% prevention, 24 h
Experimental: as §1
as §2, with “Furthermore, the sterile medium was included in the plate as a marker of potential microbial contamination.” left out, “The difference of A625nm was considered as a measure of the ability of cells to grow in the presence of the tested substances.” left out
as §3, §4

L. monocytogenes 149 = experiment: MIC for planktonic cell growth (A625nm); format: cell-based, Listeria monocytogenes; details: ≥80% inhibition, 24 h
Experimental: as §1
as §2, with “Furthermore, the sterile medium was included in the plate as a marker of potential microbial contamination.” left out, “The difference of A625nm was considered as a measure of the ability of cells to grow in the presence of the tested substances.” left out
as §3, §4

L. monocytogenes 164 = experiment: MIC for planktonic cell growth (A625nm); format: cell-based, Listeria monocytogenes; details: ≥80% inhibition, 24 h
Experimental: as §1
as §2, with “Furthermore, the sterile medium was included in the plate as a marker of potential microbial contamination.” left out, “The difference of A625nm was considered as a measure of the ability of cells to grow in the presence of the tested substances.” left out
as §3, §4

S. aureus 816 [4] = experiment: MIC for planktonic cell growth (A625nm); format: cell-based, Staphylococcus aureus; details: ≥80% inhibition, 24 h
Experimental: as §1
as §2, with “Furthermore, the sterile medium was included in the plate as a marker of potential microbial contamination.” left out, “The difference of A625nm was considered as a measure of the ability of cells to grow in the presence of the tested substances.” left out
as §3, §4

S. aureus 1241 [5] = experiment: MIC for planktonic cell growth (A625nm); format: cell-based, Staphylococcus aureus; details: ≥80% inhibition, 24 h
Experimental: as §1
as §2, with “Furthermore, the sterile medium was included in the plate as a marker of potential microbial contamination.” left out, “The difference of A625nm was considered as a measure of the ability of cells to grow in the presence of the tested substances.” left out
as §3, §4

Compound | MICBF80 [1] | MICBF80 (E. coli 683/17) | MICBF80 (S. aureus 816 [2]) | MICBF80 (S. aureus 1241 [3]) | MICPC80 (L. monocytogenes 149) | MICPC80 (L. monocytogenes 164) | MICPC80 (S. aureus 816 [4]) | MICPC80 (S. aureus 1241 [5]) | maximal achieved inhibition (MICBF80 not reached) ([1]; within tested concentrations) | maximal achieved inhibition (MICBF80 not reached) (E. coli 683/17; within tested concentrations)
CC(=O)N[C@@H](CS)C(=O)O [NAC, N-Acetyl-L-cysteine] | 12,500 µg/mL | 6250 µg/mL | 3130 µg/mL | 12,500 µg/mL | 3130 µg/mL | 6250 µg/mL | 3130 µg/mL | 3130 µg/mL | – | –
CC(=O)c1c(O)c(C)c(O)c2c1OC1=CC(=O)C(C(C)=O)C(=O)C12C (single isomer, unassigned; (+)) [UA, (+)-usnic acid] | > 31.3 µg/mL | > 31.3 µg/mL | 0.24 µg/mL | 0.24 µg/mL | 0.98 µg/mL | 1.96 µg/mL | 0.24 µg/mL | 0.24 µg/mL | 25% | 10%
